# Activity calls are given as the source filed them. The calls are words filed in the database; no cut-off is given here.
# Assays:
# [1] = tested on: MCF7; test: Inhibition of cell migration in human MCF7 cells assessed as reduction in wound healing index at 0.625 uM measured after 72 hrs by scratch assay; assay type: functional, cell-based
# [2] = Toxicity in BALB/C-nu/nu mouse xenografted with human MCF7 cells assessed as histopathological lesions in lung at 20 to 30 mg/kg, iv administered every other day for 15 days by H and E staining based analysis; assay type: organism-based; conditions: in vivo, 360 h, dose 20-30 mg/kg, time 15 day
# [3] = tested on: MCF7; test: Induction of apoptosis in human MCF7 cells assessed as late apoptotic cells at 2.5 uM incubated for 48 hrs by Annexin V-FITC/PI staining based flow cytometric analysis (reference value: 5.31 %); assay type: functional
# [4] = Toxicity in BALB/C-nu/nu mouse xenografted with human MCF7 cells assessed as reduction in body weight at 30 mg/kg, iv administered every other day for 15 days relative to control; assay type: organism-based; design: scale not given: the % may be the effect or the level left; conditions: in vivo, 360 h, time 15 day
# [5] = tested on: HCT-116; test: Antiproliferative activity against human HCT-116 cells assessed as reduction in cell viability incubated for 2 days by MTT assay; assay type: functional, cell-based; conditions: HCT-116, 48 h
# [6] = Acute toxicity in BALB/c nu/nu mouse assessed as survival rate at 100 mg/kg, ip administered for 7 days relative to control; assay type: organism-based; conditions: in vivo, time 7 day
# [7] = tested on: MCF7; test: Induction of apoptosis in human MCF7 cells assessed as late apoptotic cells at 1.25 uM incubated for 48 hrs by Annexin V-FITC/PI staining based flow cytometric analysis (reference value: 5.31 %); assay type: functional
# [8] = Toxicity in BALB/C-nu/nu mouse xenografted with human MCF7 cells assessed as histopathological lesions in heart at 20 to 30 mg/kg, iv administered every other day for 15 days by H and E staining based analysis; assay type: organism-based; conditions: in vivo, 360 h, dose 20-30 mg/kg, time 15 day
# [9] = tested on: MCF7; test: Induction of cell cycle arrest in human MCF7 cells assessed as decrease in S phase cells at 5 uM incubated for 24 hrs by PI staining based flow cytometric analysis; assay type: functional
# [10] = tested on: MCF7; test: Induction of cell cycle arrest in human MCF7 cells assessed as accumulation of cells at G2/M phase cells at 5 uM incubated for 24 hrs by PI staining based flow cytometric analysis (reference value: 10.2 %); assay type: functional
# [11] = tested on: MDA-MB-231; test: Inhibition of colony formation in human MDA-MB-231 cells assessed as reduction in colony count incubated for 2 weeks by crystal violet staining based analysis; assay type: functional, cell-based
# [12] = tested on: MCF7; test: Induction of morphological changes in human MCF7 cells assessed as cell membrane blebbing at 10 uM measured after 6 hrs by bright field microscopic; assay type: functional, cell-based
# [13] = Acute toxicity in BALB/c nu/nu mouse assessed as survival rate at 120 mg/kg, ip administered for 7 days relative to control; assay type: organism-based; conditions: in vivo, time 7 day
# [14] = tested on: 4T1; test: Antiproliferative activity against mouse 4T1 cells assessed as reduction in cell viability incubated for 2 days by MTT assay; assay type: functional, cell-based; conditions: 4T1, 48 h
# [15] = tested on: MCF7; test: Induction of DNA double-strand breaks in human MCF7 cells assessed as increase in gamma-H2AX foci formation at 10 uM incubated for 24 hrs by […] fluorescence microscopic analysis; assay type: functional, cell-based
# [16] = tested on: MCF7; test: Antitumor activity against human MCF7 cells xenografted in BALB/C-nu/nu mouse model assessed as inhibition of Ki-67 expression level at 20 to 30 mg/kg, iv administered every other day for 15 days by immunohistochemical analysis; assay type: functional, organism-based; conditions: dose 20-30 mg/kg, time 15.0 day
# [17] = tested on: MDA-MB-231; test: Antiproliferative activity against human MDA-MB-231 cells assessed as reduction in cell viability incubated for 2 days by MTT assay; assay type: functional, cell-based; conditions: MDA-MB-231, 48 h
# [18] = molecular target: T1, Far upstream element-binding protein 2 (Homo sapiens) (UniProt Q92945); test: Binding affinity to recombinant full-length KSRP (unknown origin) by SPR analysis
# T1 sequence (whole entry): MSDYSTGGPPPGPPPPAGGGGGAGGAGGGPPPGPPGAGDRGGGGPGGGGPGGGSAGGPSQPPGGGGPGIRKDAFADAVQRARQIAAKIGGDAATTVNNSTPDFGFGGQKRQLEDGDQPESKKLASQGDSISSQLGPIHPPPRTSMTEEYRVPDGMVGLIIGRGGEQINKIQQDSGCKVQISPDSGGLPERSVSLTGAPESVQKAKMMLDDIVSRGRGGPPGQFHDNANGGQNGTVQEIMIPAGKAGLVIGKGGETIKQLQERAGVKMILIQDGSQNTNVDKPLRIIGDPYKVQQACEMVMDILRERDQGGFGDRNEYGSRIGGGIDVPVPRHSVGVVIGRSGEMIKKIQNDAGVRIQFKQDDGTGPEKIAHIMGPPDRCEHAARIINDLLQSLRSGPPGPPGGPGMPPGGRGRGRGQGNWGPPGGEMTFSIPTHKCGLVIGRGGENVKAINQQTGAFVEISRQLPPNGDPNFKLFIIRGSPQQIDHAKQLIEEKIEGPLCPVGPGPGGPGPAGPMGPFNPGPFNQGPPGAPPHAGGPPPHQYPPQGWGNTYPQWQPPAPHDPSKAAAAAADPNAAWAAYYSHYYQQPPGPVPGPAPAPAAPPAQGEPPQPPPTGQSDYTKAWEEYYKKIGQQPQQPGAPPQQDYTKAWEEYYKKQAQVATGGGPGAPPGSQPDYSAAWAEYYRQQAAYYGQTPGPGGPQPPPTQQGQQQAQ
# [19] = tested on: MCF7; test: Induction of apoptosis in human MCF7 cells assessed as early apoptotic cells at 0.62 uM incubated for 48 hrs by Annexin V-FITC/PI staining based flow cytometric analysis (reference value: 6.33 %); assay type: functional
# [20] = tested on: MCF7; test: Induction of apoptosis in human MCF7 cells assessed as early apoptotic cells at 1.25 uM incubated for 48 hrs by Annexin V-FITC/PI staining based flow cytometric analysis (reference value: 6.33 %); assay type: functional
# [21] = tested on: NCI-H460; test: Antiproliferative activity against human NCI-H460 cells assessed as reduction in cell viability incubated for 2 days by MTT assay; assay type: functional, cell-based; conditions: NCI-H460, 48 h
# [22] = tested on: MCF7; test: Induction of apoptosis in human MCF7 cells assessed as early apoptotic cells at 2.5 uM incubated for 48 hrs by Annexin V-FITC/PI staining based flow cytometric analysis (reference value: 6.33 %); assay type: functional
# [23] = tested on: MCF7; test: Induction of DNA double-strand breaks in human MCF7 cells assessed as increase in gamma-H2AX expression incubated for 24 hrs by Western blotting; assay type: functional, cell-based
# [24] = tested on: MCF7; test: Induction of cell cycle arrest in human MCF7 cells assessed as decrease in G0/G1 phase cells at 5 uM incubated for 24 hrs by PI staining based flow cytometric analysis; assay type: functional
# [25] = tested on: MCF7; test: Antitumor activity against human MCF7 cells xenografted in BALB/C-nu/nu mouse model assessed as decrease in tumor volume at 30 mg/kg, iv administered every other day for 15 days relative to control; assay type: functional; design: scale not given: the % may be the effect or the level left; conditions: time 15 day
# [26] = tested on: MCF7; test: Antitumor activity against human MCF7 cells xenografted in BALB/C-nu/nu mouse model assessed as decrease in tumor volume at 20 mg/kg, iv administered every other day for 15 days relative to control; assay type: functional; design: scale not given: the % may be the effect or the level left; conditions: time 15 day
# [27] = Toxicity in BALB/C-nu/nu mouse xenografted with human MCF7 cells assessed as histopathological lesions in liver at 20 to 30 mg/kg, iv administered every other day for 15 days by H and E staining based analysis; assay type: organism-based; conditions: in vivo, 360 h, dose 20-30 mg/kg, time 15 day
compound,measurement,setting,value
CN(CCO)S(=O)(=O)c1ccc(-n2ncc(Cl)c(Cl)c2=O)cc1,inhibition,[1],Active
same,Activity,[2],Non-Toxic
same,Activity,[3],31%
same,Activity,[4],20%
same,IC50,[5],780 nM
same,survival at 168 h,[6],80%
same,Activity,[7],13.5%
same,Activity,[8],Non-Toxic
same,Activity,[9],Active
same,Activity,[10],19.9%
same,inhibition,[11],Active
same,Activity,[12],Active
same,survival at 168 h,[13],0%
same,IC50,[14],1230 nM
same,Activity,[15],Active
same,Activity,[16],Active
same,IC50,[17],8.35 µM
same,Activity,[18],Dose-Dependent Effect
same,Activity,[19],7.62%
same,Activity,[20],10.2%
same,IC50,[21],1020 nM
same,Activity,[22],26.7%
same,Activity,[23],Dose-Dependent Effect
same,Activity,[24],Active
same,Activity,[25],61.6%
same,Activity,[26],37.7%
same,Activity,[27],Non-Toxic

# From ChEMBL document CHEMBL6127035, “Novel pyridazinone derivatives bind to KSRP: Synthesis, anti-tumor biological evaluations and modelling insights” (Eur J Med Chem, 2024)
